The test system of data set [1] is human ureteral smooth muscle cell (hUSMC). The experiment in a line: Cell viability of hUSMC in the HTS of Example 1.
Procedure: Eight-point dosing curves were performed starting at 25 μM. […] The results were collected from three separate screening runs across three unique primary hUSMC lines (derived from three separate patients).
These relaxation percentages were derived after an 8 hour exposure.
Data set [2] shares this test system. In words: High throughput screening (HTS) of hUSMC relaxation (p-MLC vs unphosphorylated MLC, single-cell analysis). In kind it is cell-based. The settings on record: for relaxation of smooth muscle cells within a cell population: 8 hour exposure; for relaxation of smooth muscle (in words): hUSMC, prolonged exposure (8 hours). From the text:
An HTS test was developed to quantify the contractile state of a human ureteral smooth muscle cell (hUSMC). Quantification of hUSMC relaxation was achieved by performing single-cell analysis using a computer vision (CellProfiler, Broad Institute, MA) approach that related each cell's fluorescence intensity to its state of muscle relaxation (comparing phosphorylated myosin with unphosphorylated myosin).
Primary hUMSCs were harvested from patients and cultured. There were about 10,000 cells per well, and 100 μL of media per well. Each well represented one experiment, and 250 nL of drug per well was delivered with DMSO (0.25% DMSO by volume).
In the test of this example, single cell analysis was performed on each cell (identified via computer vision) after exposure to various drugs which enable relaxation in order to correlate each cell's contractile state to the therapeutic compound, exposure time, and dose.
These correlations were determined by analyzing the fluorescent intensity of smooth muscle cells, which is related to the contractile state of the muscles. When a smooth muscle cell is signaled to contract, phosphorylation of myosin light-chain (p-MLC) occurs, which is a biomarker of muscle contraction. Conversely, when smooth muscle is left unphosphorylated (MLC), muscle relaxation occurs. Therefore, smooth muscle contraction can be computed from the proportion of p-MLC to unphosphorylated-MLC.
The tested agents included those in the following table.

The subject of a further data set is whole porcine ureters. The experiment in a line: Bench top ex vivo model, phenylephrine-stimulated contractions, intraluminal delivery. Also noted: species or system pig. As to the method: An ex vivo bench top model was designed to permit the testing of whole ureteral segments. Flow through the ureteral segments was regulated, and ranged from 0.25 mL/minute to 60 mL/minute. […] The intraluminal reservoirs contained either preheated saline buffer or dilutions of any candidate therapeutic agent.
The pounds per square inch (PSI) pressure readings were obtained using a fiber-optic pressure catheter.
For this test, a ureter was prepared through intraluminal delivery of saline (Krebs-Henseleit Buffer) (BUF) only (region “i”). The experiment then was initiated and phenylephrine [10 mM] was added to the Krebs infusion to stimulate baseline peristaltic contractions seen in patients with urinary stones (region “ii”). […] [1 μM]
Cumulative ureteral contractions were plotted over the course of the entire experiment, and are depicted at FIG. 8. For this test, a ureter was prepared through intraluminal delivery of saline (BUF) only (region “i”). The experiment was initiated and phenylephrine [10 mM] was added to the Krebs infusion to stimulate baseline peristaltic contractions seen in patients with urinary stones (region “ii”).

The procedure of data set [3]: A commercially available surgical lubricant (SURGILUBE® lubricant) was combined with a surfactant. The surfactant was Polysorbate 20, and 0.6 mL of the Polysorbate 20 was added to 19.4 mL of the surgical lubricant.
However, more surfactant may be added to increase drug concentration, e.g., up to about 500 μM.

The subject of data set [4] is hUSMCs. In kind it is cell-based. Particulars: human.
For data set [5], the system named is hUSMCs. The settings on record: for Percentages of Cells that Remained Contracted After Treatment: Nifedipine 0 μM.

Like-named read-outs stand apart in the source and are kept apart here.

With `Cc1ccc(-c2cc(C(F)(F)F)nn2-c2ccc(S(N)(=O)=O)cc2)cc1` [Celecoxib], in data set [1], the “toxicity to the tested cells (false hit)” value is on record as “toxicity killed the tested cells”. Further, the figures for the “relaxation of smooth muscle cells within a cell population” value in data set [2] (12.5 μM) and in data set [2] (25 μM) were 20% and 30%, respectively.
For `CCOc1ccccc1OCCN[C@H](C)Cc1ccc(OC)c(S(N)(=O)=O)c1` [Tamsulosin], in data set [2] (6.25 μM or greater), the cell population relaxation is listed as ~20%. Moreover, the “relaxation of smooth muscle (in words)” value in data set [2] was “demonstrated efficacy at certain doses”.
With `CCCc1nc(C)c2c(=O)[nH]c(-c3cc(S(=O)(=O)N4CCN(CC)CC4)ccc3OCC)nn12` [Vardenafil], the cell population relaxation in data set [2] (1.56 μM or greater) is ~20%.
For `C[C@@H](N)[C@H]1CC[C@H](C(=O)Nc2ccncc2)CC1` [Y-27632], the “reduction in contractile frequency” value in the data set on whole porcine ureters (10 μM intraluminally) was found to be 3 ×. In addition, in the data set on whole porcine ureters (10 μM intraluminally, with 10 mM phenylephrine, listed as Y27632 (ROCK)), the “contractile activity of ureter (in words)” value was “rapid relaxation of the ureter”. In addition, the “frequency of peristaltic activity (in words)” value in the data set on whole porcine ureters (10 μM with 10 mM phenylephrine, region iii) was “significant decrease in frequency”. In the data set on whole porcine ureters (10 μM, region iii vs other regions of FIG. 8), the “reduction in the slope of linear regression of cumulative contractions” value is listed as ≥ 3 ×. Also, the “effect after removal from the infusion (region iv)” value in the data set on whole porcine ureters (phenylephrine 10 mM and saline buffer continued) is recorded as “the effects were reversed”. Moreover, in data set [3], the “actual drug retention in the surgical lubricant/surfactant mixture” value is given as “about 200 μM”. The results for the “Percentages of Cells that Retained Viability” value in the data set on hUSMCs [4] (3.13 μM), with hUSMCs [4] (25 μM) and in the data set with hUSMCs [4] (50 μM) were 110%, 100% and 95%, respectively. Further, the relaxation result in the data set with hUSMCs [5] (25 μM alone, 8 hour exposure) is “about 45%”. Further, the “Percentages of Cells that Remained Contracted After Treatment” value with hUSMCs [5] (ROCK 1.56 μM) is 81%; with hUSMCs [5] (ROCK 3.13 μM) it was 71%; with hUSMCs [5] (ROCK 6.25 μM), 67%; in the data set with hUSMCs [5] (ROCK 12.50 μM), 59%; in the data set with hUSMCs [5] (ROCK 25.00 μM) it was 54%; with hUSMCs [5] (ROCK 50.00 μM) it was 50%. In addition, in the data set with hUSMCs [5] (ROCK […]), the “Percentages of Cells that Remained Contracted After Treatment” value came to 86%. Moreover, the “relaxation of smooth muscle cells within a cell population” value in data set [2] (3.13 μM) was 20%. Further, the “hUSMC population relaxed (greatest effect, FIG. 1)” value in data set [2] (after an 8 hour exposure) is on record as “about 40%”. For the same molecule, the results for the “relaxation of smooth muscle (in words)” value in data set [2] (listed as ROCK Y-27632) and in data set [2] (listed as Y-27632 (ROCK)) were “significant relaxation of smooth muscle” and “relatively significant cell relaxation”, respectively.
